Experimental data taken from the NIST ThermoML archive (doi:10.1016/j.jct.2016.09.007).

Assay: xn = mol fraction of the nth substance listed
Conditions: 93.2 kPa, Liquid; for speed of sound: Frequency=3 MHz, Sing-around technique in a fixed-path interferometer; for mass density: Vibrating tube method

CCCC(=O)[O-].CCCC[NH3+] [n-butylammonium butanoate] + CCCCO
Conditions | mass density, 293.15 K [kg/m3] | mass density, 298.15 K [kg/m3] | mass density, 303.15 K [kg/m3] | mass density, 308.15 K [kg/m3] | mass density, 313.15 K [kg/m3] | speed of sound, 293.15 K [m/s] | speed of sound, 298.15 K [m/s] | speed of sound, 303.15 K [m/s] | speed of sound, 308.15 K [m/s] | speed of sound, 313.15 K [m/s]
x1 = 0.0305 | 817.522 | 813.696 | 809.839 | 805.95 | 802.02 | 1266.2 | 1249.1 | 1232 | 1215.2 | 1198.4
x1 = 0.053 | 822.696 | 818.886 | 815.044 | 811.168 | 807.257 | 1271.7 | 1254.5 | 1237.4 | 1220.5 | 1203.8
x1 = 0.101 | 833.099 | 829.318 | 825.508 | 821.665 | 817.785 | 1283.3 | 1266 | 1248.9 | 1231.9 | 1215
x1 = 0.1611 | 844.531 | 840.793 | 837.028 | 833.231 | 829.399 | 1296.3 | 1279 | 1261.8 | 1244.8 | 1227.9
x1 = 0.2022 | 851.656 | 847.949 | 844.213 | 840.451 | 836.653 | 1304.8 | 1287.5 | 1270.3 | 1253.2 | 1236.3
x1 = 0.2509 | 859.278 | 855.605 | 851.908 | 848.183 | 844.427 | 1314 | 1296.7 | 1279.5 | 1262.5 | 1245.6
x1 = 0.3027 | 866.842 | 863.204 | 859.543 | 855.853 | 852.119 | 1323.6 | 1306.3 | 1289.2 | 1272.1 | 1255.3
x1 = 0.3528 | 873.375 | 869.771 | 866.147 | 862.502 | 858.829 | 1332.3 | 1315 | 1297.9 | 1280.9 | 1264.1
x1 = 0.4053 | 879.699 | 876.13 | 872.54 | 868.931 | 865.297 | 1340.8 | 1323.5 | 1306.4 | 1289.5 | 1272.7
x1 = 0.449 | 884.611 | 881.064 | 877.503 | 873.925 | 870.321 | 1347.7 | 1330.5 | 1313.3 | 1296.4 | 1279.7
x1 = 0.4988 | 889.855 | 886.337 | 882.803 | 879.25 | 875.67 | 1355.4 | 1338.1 | 1321 | 1304.1 | 1287.4
x1 = 0.5505 | 894.968 | 891.475 | 887.969 | 884.447 | 880.9 | 1363.2 | 1345.9 | 1328.8 | 1311.9 | 1295.2
x1 = 0.6005 | 899.486 | 896.02 | 892.541 | 889.046 | 885.533 | 1370.4 | 1353 | 1335.9 | 1319 | 1302.3
x1 = 0.6491 | 903.634 | 900.198 | 896.744 | 893.273 | 889.785 | 1377.4 | 1359.9 | 1342.7 | 1325.8 | 1309.1
x1 = 0.6982 | 907.626 | 904.22 | 900.798 | 897.354 | 893.894 | 1384.5 | 1366.9 | 1349.6 | 1332.6 | 1316
x1 = 0.7456 | 911.277 | 907.896 | 904.501 | 901.087 | 897.65 | 1391.5 | 1373.7 | 1356.2 | 1339.1 | 1322.3
x1 = 0.7944 | 914.718 | 911.354 | 907.982 | 904.593 | 901.177 | 1398.7 | 1380.5 | 1362.8 | 1345.5 | 1328.7
x1 = 0.8462 | 918.325 | 914.961 | 911.608 | 908.243 | 904.86 | 1406.7 | 1388 | 1370 | 1352.5 | 1335.5
x1 = 0.8928 | 921.358 | 917.984 | 914.632 | 911.284 | 907.92 | 1414.2 | 1394.9 | 1376.5 | 1358.7 | 1341.5
x1 = 0.9463 | 924.512 | 921.173 | 917.809 | 914.461 | 911.112 | 1422.7 | 1402.7 | 1383.7 | 1365.5 | 1348
x1 = 1 | 928.794 | 925.509 | 922.217 | 918.88 | 915.567 | 1431.5 | 1410.3 | 1390.4 | 1371.5 | 1353.6
